Assay results published in US20240116985A1, “STAPLED PEPTIDES AND METHODS THEREOF” (priority 2020, published 2024).
Like-named read-outs stand apart in the source and are kept apart here.

Key:
[1] = biological target: T1, full-length beta-Catenin (Uniprot ID P35222) (Homo sapiens, UniProt P35222); test: Fluorescence polarization IC50 (beta-catenin / 5FAM-TCF4 10-53 competition); format: binding; settings: fluorescence polarization; read-out: beta-Catenin FP IC50
T1 construct: 10 nM full-length beta-Catenin (Uniprot ID P35222)
T1 sequence (P35222 1-781): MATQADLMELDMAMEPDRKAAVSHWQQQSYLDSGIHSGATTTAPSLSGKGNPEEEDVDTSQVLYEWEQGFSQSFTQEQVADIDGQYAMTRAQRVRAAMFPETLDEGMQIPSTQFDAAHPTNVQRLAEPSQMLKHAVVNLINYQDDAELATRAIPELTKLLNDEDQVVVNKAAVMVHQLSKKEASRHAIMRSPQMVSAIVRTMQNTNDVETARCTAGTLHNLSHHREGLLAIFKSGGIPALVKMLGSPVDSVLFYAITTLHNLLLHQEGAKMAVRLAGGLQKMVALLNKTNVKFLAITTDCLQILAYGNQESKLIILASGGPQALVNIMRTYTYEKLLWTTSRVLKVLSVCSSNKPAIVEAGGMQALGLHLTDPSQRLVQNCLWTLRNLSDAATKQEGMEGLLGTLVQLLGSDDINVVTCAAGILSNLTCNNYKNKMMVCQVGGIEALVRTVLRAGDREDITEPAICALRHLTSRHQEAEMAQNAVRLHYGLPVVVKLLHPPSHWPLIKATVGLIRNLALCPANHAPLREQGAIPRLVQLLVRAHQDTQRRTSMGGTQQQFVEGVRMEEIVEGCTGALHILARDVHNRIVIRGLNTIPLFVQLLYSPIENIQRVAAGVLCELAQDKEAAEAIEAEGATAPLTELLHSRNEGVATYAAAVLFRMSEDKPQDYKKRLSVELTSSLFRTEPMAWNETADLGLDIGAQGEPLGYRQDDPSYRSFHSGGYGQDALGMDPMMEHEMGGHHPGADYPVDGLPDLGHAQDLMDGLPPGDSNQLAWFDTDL

[2] = biological target: T2, beta-catenin/TCF4 engagement (Homo sapiens, UniProt P35222); test: Nano-BRET target engagement assay (B-cat-Halo & TCF4-Luc in HEK293 cells); format: cell-based; settings: read-out: NanoBRET Abs IC50
T2 construct: expressed in transfected cells; host or cells: HEK293
T2 sequence (P35222 1-781): T1 sequence (P35222 1-781)

Work on `CCNC(=O)[C@H](CCC(N)=O)NC(=O)[C@H](Cc1csc2ccccc12)NC(=O)[C@H](Cc1ccsc1)NC(=O)[C@]12CCN(C1)C(=O)OCCCC=CCCCC1(CCCC=CC[C@]3(CCCN3C(C)=O)C(=O)N[C@@H](CC(=O)O)C(=O)N[C@@H](CC(C)(C)C)C(=O)N1)C(=O)N[C@@H](CC(=O)O)C(=O)N[C@@H](CN(CC(=O)O)CC(F)(F)F)C(=O)N[C@@H](C)C(=O)N[C@@H](C)C(=O)N[C@@H](Cc1ccccc1)C(=O)N[C@@H](CC(C)C)C(=O)N2` (stereo partly drawn) [I-1678, Ac-PL3-Asp-Npg-B5-Asp-TfeGA-Ala-Ala-Phe-Leu-PyrS2-3Thi-BztA-Gln-NHEt] yielded an IC50 [1] of 32 nM and an IC50 ([2]; absolute IC50) of 9700 nM.
In the case of `CC(=O)N1CCC[C@]12CC=CCCCC1(CCCC=CCCCOC(=O)N3CC[C@@](C(=O)N[C@@H](Cc4ccccc4Cl)C(=O)N[C@@H](Cc4csc5ccccc45)C(=O)N[C@@H](CCC(N)=O)C(N)=O)(C3)NC(=O)[C@H](CC(C)C)NC(=O)[C@H](Cc3ccccc3)NC(=O)[C@H](C)NC(=O)[C@H](CCCCNC(C)C)NC(=O)[C@H](CC(=O)O)NC(=O)[C@H](CC(=O)O)NC1=O)NC(=O)[C@H](CC(C)(C)C)NC(=O)[C@H](CC(=O)O)NC2=O` (stereo partly drawn) [I-1275, Ac-PL3-Asp-Npg-B5-Asp-Asp-iPrLys-Ala-Phe-Leu-PyrS2-2C1F-BztA-Gln-NH2], the IC50 [1] is reported as 9 nM and the IC50 ([2]; absolute IC50) is reported as 27800 nM.
`CC(=O)N1CCC[C@]12CC=CCCCC1(CCCC=CCCCOC(=O)N3CC[C@@](C(=O)N[C@@H](Cc4ccsc4)C(=O)N[C@@H](Cc4csc5ccccc45)C(=O)N[C@@H](CCC(N)=O)C(N)=O)(C3)NC(=O)[C@H](CC(N)=O)NC(=O)[C@H](Cc3ccccc3)NC(=O)[C@H](C)NC(=O)[C@H](C)NC(=O)[C@H](CN(CC(=O)O)Cc3ccccc3)NC(=O)[C@H](CC(=O)O)NC1=O)NC(=O)[C@H](CC(C)(C)C)NC(=O)[C@H](CC(=O)O)NC2=O` (stereo partly drawn) [I-1635, Ac-PL3-Asp-Npg-B5-Asp-[Bn]GA-Ala-Ala-Phe-Asn-PyrS2-3Thi-BztA-Gln-NH2] was tested, and the IC50 [1] was 7 nM and the IC50 ([2]; absolute IC50) was 20600 nM.
With `CC(=O)N1CCC[C@]12CC=CCCCC1(CCCC=CCCCOC(=O)N3CC[C@@](C(=O)N[C@@H](Cc4ccccc4)C(=O)N[C@@H](Cc4csc5ccccc45)C(=O)N[C@@H](Cc4c[nH]cn4)C(N)=O)(C3)NC(=O)[C@H](CC(N)=O)NC(=O)[C@H](Cc3ccccc3)NC(=O)[C@H](C)NC(=O)[C@H](CCCCNC(C)C)NC(=O)[C@H](CCC(N)=O)NC(=O)[C@H](CC(=O)O)NC1=O)NC(=O)[C@H](CC1CCCCC1)NC(=O)[C@H](CC(N)=O)NC2=O` (stereo partly drawn) [I-2109, Ac-PL3-Asn-Cha-B5-Asp-Gln-iPrLys-Ala-Phe-Asn-PyrS2-Phe-BztA-His-NH2] the IC50 [1] was 136 nM and the IC50 [2] was greater than 20000 nM.
`CC(=O)N1CCC[C@]12CC=CCCCC1(CCCC=CCCCOC(=O)N3CC[C@@](C(=O)N[C@@H](Cc4ccsc4)C(=O)N[C@@H](Cc4csc5ccccc45)C(=O)N[C@@H](CCC(N)=O)C(N)=O)(C3)NC(=O)[C@H](CC(C)C)NC(=O)[C@H](Cc3ccccc3)NC(=O)[C@H](C)NC(=O)[C@H](C)NC(=O)[C@H](CCn3cc(CCC(=O)O)nn3)NC(=O)[C@H](CC(=O)O)NC1=O)NC(=O)[C@H](CC(C)(C)C)NC(=O)[C@H](CC(=O)O)NC2=O` (stereo partly drawn) [I-2076, Ac-PL3-Asp-Npg-B5-Asp-[CH2CH2CO2H]TriAzDab-Ala-Ala-Phe-Leu-PyrS2-3Thi-BztA-Gln-NH2] showed an IC50 [1] of 16 nM and an IC50 [2] of 14100 nM.
`CC(=O)N1CCC[C@]12CC=CCCCC1(CCCC=CCCCOC(=O)N3CC[C@@](C(=O)N[C@@H](Cc4ccccc4)C(=O)N[C@@H](Cc4csc5ccccc45)C(=O)N[C@@H](CCC(N)=O)C(N)=O)(C3)NC(=O)[C@H](CC(C)C)NC(=O)[C@H](Cc3ccccc3)NC(=O)[C@H](C)NC(=O)[C@H](C)NC(=O)[C@H](CN(CC(=O)O)CC(F)(F)F)NC(=O)[C@H](CC(=O)O)NC1=O)NC(=O)[C@H](CC(C)(C)C)NC(=O)[C@H](CC(=O)O)NC2=O` (stereo partly drawn) [I-1700, Ac-PL3-Asp-Npg-B5-Asp-TfeGA-Ala-Ala-Phe-Leu-PyrS2-Phe-BztA-Gln-NH2] showed an IC50 [1] of 16 nM and an IC50 ([2]; absolute IC50) of 4800 nM.
With `CC(=O)N1CCC[C@]12CC=CCCCC1(CCCC=CCCCOC(=O)N3CC[C@@](C(=O)N[C@@H](Cc4ccsc4)C(=O)N[C@@H](Cc4csc5ccccc45)C(=O)N[C@@H](CCC(N)=O)C(N)=O)(C3)NC(=O)[C@H](CCO)NC(=O)[C@H](Cc3ccccc3)NC(=O)[C@H](C)NC(=O)[C@H](C)NC(=O)[C@H](Cc3c[nH]cn3)NC(=O)[C@H](CC(=O)O)NC1=O)NC(=O)[C@H](CC(C)(C)C)NC(=O)[C@H](CC(=O)O)NC2=O` (stereo partly drawn) [I-1793, Ac-PL3-Asp-Npg-B5-Asp-His-Ala-Ala-Phe-Hse-PyrS2-3Thi-BztA-Gln-NH2] the IC50 [1] was 20 nM and the IC50 ([2]; absolute IC50) was greater than 20000 nM.
`CC(=O)N1CCC[C@]12CC=CCCCC1(CCCC=CCCCOC(=O)N3CC[C@@](C(=O)N[C@@H](Cc4ccsc4)C(=O)N[C@@H](Cc4csc5ccccc45)C(=O)N[C@@H](CCO)C(N)=O)(C3)NC(=O)[C@H](CC(C)C)NC(=O)[C@H](Cc3ccccc3)NC(=O)[C@H](C)NC(=O)[C@H](C)NC(=O)[C@H](CC(=O)O)NC(=O)[C@H](CC(=O)O)NC1=O)NC(=O)[C@H](Cc1ccc(O)cc1)NC(=O)[C@H](CC(=O)O)NC2=O` (stereo partly drawn) [I-1512, Ac-PL3-Asp-Tyr-B5-Asp-Asp-Ala-Ala-Phe-Leu-PyrS2-3Thi-BztA-Hse-NH2] gave an IC50 [1] of 12 nM and an IC50 ([2]; absolute IC50) greater than 20000 nM.
With `CC(=O)N1CCC[C@]12CC=CCCCC1(CCCC=CCCCOC(=O)N3CC[C@@](C(=O)N[C@@H](Cc4ccccc4C(F)(F)F)C(=O)N[C@@H](Cc4csc5ccccc45)C(=O)N[C@@H](CCC(N)=O)C(=O)N[C@@H](CC(C)C)C(=O)N[C@H](CC(C)C)C(N)=O)(C3)NC(=O)[C@H](CC(C)C)NC(=O)[C@H](Cc3ccccc3)NC(=O)[C@H](C)NC(=O)[C@H](C)NC(=O)[C@H](Cc3cccc(C(=O)O)c3)NC(=O)[C@H](CC(=O)O)NC1=O)NC(=O)[C@H](CC(C)(C)C)NC(=O)[C@H](CC(=O)O)NC2=O` (stereo partly drawn) [I-2396, Ac-PL3-Asp-Npg-B5-Asp-3COOHF-Ala-Ala-Phe-Leu-PyrS2-2F3MeF-BztA-Gln-Leu-dLeu-NH2] the IC50 [1] was 187 nM and the IC50 ([2]; absolute IC50) was 8300 nM.
For `CC(=O)N1CCC[C@]12CC=CCCCC1(CCCC=CCCCCCC[C@@](C)(C(=O)N[C@@H](Cc3ccccc3)C(=O)N[C@@H](Cc3csc4ccccc34)C(=O)N[C@@H](CCC(N)=O)C(N)=O)NC(=O)[C@H](CCO)NC(=O)[C@H](Cc3ccccc3)NC(=O)[C@H](C)NC(=O)[C@H](C)NC(=O)[C@H](CCC(=O)O)NC(=O)[C@H](CC(=O)O)NC1=O)NC(=O)[C@H](CO)NC(=O)[C@H](CC(=O)O)NC2=O` (stereo partly drawn) [I-1530, Ac-PL3-Asp-Ser-B5-Asp-Glu-Ala-Ala-Phe-Hse-S8-Phe-BztA-Gln-NH2], the IC50 [1] was 61 nM and the IC50 ([2]; absolute IC50) was 36900 nM.
With `CC(=O)N1CCC[C@]12CC=CCCCC1(CCCC=CCCCOC(=O)N3CC[C@@](C(=O)N[C@@H](Cc4ccccc4C(F)(F)F)C(=O)N[C@H](C(=O)N[C@@H](CCC(N)=O)C(N)=O)[C@H](C)c4ccc5ccccc5c4)(C3)NC(=O)[C@H](CC(C)C)NC(=O)[C@H](Cc3ccccc3)NC(=O)[C@H](C)NC(=O)[C@H](C)NC(=O)[C@H](Cc3cccc(C(=O)O)c3)NC(=O)[C@H](CC(=O)O)NC1=O)NC(=O)[C@H](CC(C)(C)C)NC(=O)[C@H](CC(=O)O)NC2=O` (stereo partly drawn) [I-2462, Ac-PL3-Asp-Npg-B5-Asp-3COOHF-Ala-Ala-Phe-Leu-PyrS2-2F3MeF-RbMe2NapA-Gln-NH2] the IC50 [1] was 40 nM and the IC50 ([2]; absolute IC50) was 4700 nM.
`CC(=O)N1CCC[C@]12CC=CCCCC1(CCCC=CCCCOC(=O)N3CC[C@@](C(=O)N[C@@H](Cc4ccsc4)C(=O)N[C@@H](Cc4csc5ccccc45)C(=O)N[C@@H](CO)C(N)=O)(C3)NC(=O)[C@H](Cc3ccccc3)NC(=O)[C@H](Cc3ccccc3)NC(=O)[C@H](C)NC(=O)[C@H](C)NC(=O)[C@H](Cc3ccccc3C(=O)O)NC(=O)[C@H](CC(=O)O)NC1=O)NC(=O)[C@H](CC(C)(C)C)NC(=O)[C@H](CC(=O)O)NC2=O` (single isomer, unassigned) [I-1664, Ac-PL3-Asp-Npg-B5-Asp-2COOHF-Ala-Ala-Phe-Phe-PyrS2-3Thi-BztA-Ser-NH2] gave an IC50 [1] of 22 nM and an IC50 ([2]; absolute IC50) of 8000 nM.
Work on `CC(=O)N1CCC[C@]12CC=CCCCC1(CCCC=CCCCOC(=O)N3CC[C@@](C(=O)N[C@@H](Cc4ccccc4C(F)(F)F)C(=O)N[C@@H](Cc4csc5ccccc45)C(=O)N[C@@H](CCC(N)=O)C(N)=O)(C3)NC(=O)[C@H](CC(C)C)NC(=O)[C@H](Cc3ccccc3)NC(=O)[C@H](C)NC(=O)[C@H](C)NC(=O)[C@H](Cc3ccccc3C(=O)O)NC(=O)[C@H](CC(=O)O)NC1=O)NC(=O)[C@H](CC(C)(C)C)NC(=O)[C@H](CC(=O)O)NC2=O` (stereo partly drawn) [I-1656, Ac-PL3-Asp-Npg-B5-Asp-2COOHF-Ala-Ala-Phe-Leu-PyrS2-2F3MeF-BztA-Gln-NH2] yielded an IC50 [1] of 20 nM and an IC50 ([2]; absolute IC50) of 10900 nM.
